We go through 22 compounds from patent publication US9260439B2, “Dihydropyrrolopyrimidine derivatives” (PFIZER INC., priority 2014, dated 2016).

Chain of truncated PI3Kα (p110α/iSH2 p85α) (P42336 whole entry, the tested form may be a part): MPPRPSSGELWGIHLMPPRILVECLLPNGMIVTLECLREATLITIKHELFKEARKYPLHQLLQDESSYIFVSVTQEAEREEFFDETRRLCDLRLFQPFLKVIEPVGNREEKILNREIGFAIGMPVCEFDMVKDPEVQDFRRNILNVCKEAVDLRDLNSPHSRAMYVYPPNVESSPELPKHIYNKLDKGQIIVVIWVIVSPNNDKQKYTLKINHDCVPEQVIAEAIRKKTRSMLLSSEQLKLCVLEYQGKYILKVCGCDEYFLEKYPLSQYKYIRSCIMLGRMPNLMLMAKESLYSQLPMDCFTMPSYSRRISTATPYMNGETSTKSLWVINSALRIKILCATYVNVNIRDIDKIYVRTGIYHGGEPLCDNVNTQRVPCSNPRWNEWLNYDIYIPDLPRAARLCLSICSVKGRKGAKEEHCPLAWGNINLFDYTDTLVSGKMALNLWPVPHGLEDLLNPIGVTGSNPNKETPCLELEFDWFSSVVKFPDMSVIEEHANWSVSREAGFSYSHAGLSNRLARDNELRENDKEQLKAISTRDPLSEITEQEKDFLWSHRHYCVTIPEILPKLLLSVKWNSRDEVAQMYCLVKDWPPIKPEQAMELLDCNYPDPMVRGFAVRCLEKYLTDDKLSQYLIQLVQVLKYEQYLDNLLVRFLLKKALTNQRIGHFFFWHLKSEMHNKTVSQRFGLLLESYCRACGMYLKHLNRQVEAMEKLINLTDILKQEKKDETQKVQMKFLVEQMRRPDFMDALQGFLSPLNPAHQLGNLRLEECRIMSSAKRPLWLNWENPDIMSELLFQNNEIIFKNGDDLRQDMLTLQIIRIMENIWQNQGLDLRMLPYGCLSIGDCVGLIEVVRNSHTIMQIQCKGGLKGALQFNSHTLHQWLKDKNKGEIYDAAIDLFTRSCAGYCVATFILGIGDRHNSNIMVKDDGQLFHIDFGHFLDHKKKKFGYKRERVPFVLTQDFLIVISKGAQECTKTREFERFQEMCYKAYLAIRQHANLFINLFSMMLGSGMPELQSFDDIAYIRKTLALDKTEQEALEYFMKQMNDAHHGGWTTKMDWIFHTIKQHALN

The test concerns the target truncated PI3Kα (p110α/iSH2 p85α) (Homo sapiens (Human), UniProt P42336). As to the kind of experiment: PI3KA_Act fluorescence polarization kinase assay (Ki). In kind it is biochemical. As to conditions: 1 mM ATP. In outline: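 Ki values result from fitting fluorescence polarization signals to the Morrison equation for tight-binding competitive inhibitors. The detector was GST-Grp1 PH domain with TAMRA-PIP3, read after a 30 min room-temperature reaction of 0.5 nM truncated PI3Kα and 30 μM PIP2 at pH 7.4 in HEPES/NaCl/MgCl2/DTT/CHAPS buffer. Compounds were tested as 12-point 3-fold dilutions from 3 μM.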
In general terms: In fluorescence polarisation assays a small probe gives low polarisation when free and higher when bound to something large.
For `C[C@H]1COCCN1c1nc(-c2cnc(N)nc2)c2c(n1)N(C1(C)CN(C(=O)C(C)(C)N)C1)CC2.Cl` [Example 456, 2-amino-1-(3-{4-(2-aminopyrimidin-5-yl)-2-[(3S)-3-methylmorpholin-4-yl]-5,6-dihydro-7H-pyrrolo[2,3-d]pyrimidin-7-yl}-3-methylazetidin-1-yl)-2-methylpropan-1-one hydrochloride], the “PI3KA_Act Ki” value was 0.063 nM. Take `CC[C@]1(N2CCc3c(-c4cnc(N)nc4)nc(N4CCOCC4)nc32)CCNC1.Cl` [Example 257, 5-{7-[(3S)-3-ethylpyrrolidin-3-yl)-2-(morpholin-4-yl)-6,7-dihydro-5H-pyrrolo[2,3-d]pyrimidin-4-yl}pyrimidin-2-amine hydrochloride]: the “PI3KA_Act Ki” value amounted to 0.955 nM. Regarding `C[C@@]1(N2CCc3c(-c4cnc(N)nc4)nc(N4CCOCC4)nc32)CCN(C(=O)C(O)C2CC2)C1` (single isomer, unassigned) [Example 327], the “PI3KA_Act Ki” value is listed as 0.028 nM.

`CN(C)C(=O)COC(=O)N1CC(N2CCc3c(-c4cnc(N)nc4)nc(N4CCOCC4)nc32)C1` [Example 151]: the “PI3KA_Act Ki” value came to 0.107 nM. In the case of `CC(C)(N)CC(=O)N1CC[C@](C)(N2CCc3c(-c4cnc(N)nc4)nc(N4CCOCC4)nc32)C1.Cl` [Example 281, 3-amino-1-{(3S)-3-[4-(2-aminopyrimidin-5-yl)-2-(morpholin-4-yl)-5,6-dihydro-7H-pyrrolo[2,3-d]pyrimidin-7-yl]-3-methylpyrrolidin-1-yl}-3-methylbutan-1-one hydrochloride] it was 0.024 nM. As for `C[C@]1(N2CCc3c(-c4cnc(N)nc4)nc(N4CCOCC4)nc32)CCN(C2CCCC2)C1` [Example 425, 5-{7-[(3S)-1-cyclopentyl-3-methylpyrrolidin-3-yl]-2-(morpholin-4-yl)-6,7-dihydro-5H-pyrrolo[2,3-d]pyrimidin-4-yl}pyrimidin-2-amine], the “PI3KA_Act Ki” value was determined as 0.311 nM. In the case of `C[C@]1(N2CCc3c(-c4cnc(N)nc4)nc(N4CCOCC4)nc32)CCN(C(=O)[C@@H]2CCCO2)C1` [Example 371, {(3S)-3-[4-(2-aminopyrimidin-5-yl)-2-(morpholin-4-yl)-5,6-dihydro-7H-pyrrolo[2,3-d]pyrimidin-7-yl]-3-methylpyrrolidin-1-yl}[(2S)-tetrahydrofuran-2-yl]methanone] it was 0.091 nM.

With `C[C@H]1COCCN1c1nc(-c2cnc(N)nc2)c2c(n1)N([C@@]1(C)CCN(C(=O)C(C)(C)N)C1)CC2` [Example 5, 2-amino-1-[(3S)-3-{4-(2-aminopyrimidin-5-yl)-2-[(3S)-3-methylmorpholin-4-yl]-5,6-dihydro-7H-pyrrolo[2,3-d]pyrimidin-7-yl}-3-methylpyrrolidin-1-yl]-2-methylpropan-1-one], the “PI3KA_Act Ki” value amounted to 0.024 nM.

Take `C[C@]1(N2CCc3c(-c4cnc(N)nc4)nc(N4CCOCC4)nc32)CCN(C(=O)[C@@](C)(N)C(F)(F)F)C1.Cl` [Example 311, (2R)-2-amino-1-{(3S)-3-[4-(2-aminopyrimidin-5-yl)-2-(morpholin-4-yl)-5,6-dihydro-7H-pyrrolo[2,3-d]pyrimidin-7-yl]-3-methylpyrrolidin-1-yl}-3,3,3-trifluoro-2-methylpropan-1-one hydrochloride]: the “PI3KA_Act Ki” value is recorded as 0.054 nM.

Regarding `CNC(C)(C)C(=O)N1CC[C@](C)(N2CCc3c(-c4cnc(N)nc4)nc(N4CCOCC4)nc32)C1.Cl` [Example 303, 1-{(3S)-3-[4-(2-aminopyrimidin-5-yl)-2-(morpholin-4-yl)-5,6-dihydro-7H-pyrrolo[2,3-d]pyrimidin-7-yl]-3-methylpyrrolidin-1-yl}-2-methyl-2-(methylamino) propan-1-one hydrochloride], the “PI3KA_Act Ki” value came to 0.025 nM. In the case of `C[C@H]1COCCN1c1nc(-c2cnc(N)nc2)c2c(n1)N(C1CN(C(=O)OC(C)(C)C)C1)CC2` [Example 141] it was 0.471 nM; in that of `CC(C)C(=O)NCC(=O)N1CC(N2CCc3c(-c4cnc(N)nc4)nc(N4CCOC[C@@H]4C)nc32)C1` [Example 212], 0.534 nM; in that of `CCNC(=O)N1CC[C@@](C)(N2CCc3c(-c4cnc(N)nc4)nc(N4CCOCC4)nc32)C1` [Example 393, (3R)-3-[4-(2-aminopyrimidin-5-yl)-2-(morpholin-4-yl)-5,6-dihydro-7H-pyrrolo[2,3-d]pyrimidin-7-yl]-N-ethyl-3-methylpyrrolidine-1-carboxamide], 0.085 nM.

In the case of `C[C@H]1COCCN1c1nc(-c2cnc(N)nc2)c2c(n1)N([C@@]13CNC[C@@H]1C3)CC2.Cl` [Example 529, 5-{7-[(1R,5S)-3-azabicyclo[3.1.0]hex-1-yl]-2-[(3S)-3-methylmorpholin-4-yl]-6,7-dihydro-5H-pyrrolo[2,3-d]pyrimidin-4-yl}pyrimidin-2-amine hydrochloride], the “PI3KA_Act Ki” value came to 0.595 nM. Next, `C[C@H]1COCCN1c1nc(-c2cnc(N)nc2)c2c(n1)N([C@]13C[C@H]1CN(C(=O)OC(C)(C)C)C3)CC2` [Example 528, tert-butyl (1R,5S)-1-{4-(2-aminopyrimidin-5-yl)-2-[(3S)-3-methylmorpholin-4-yl]-5,6-dihydro-7H-pyrrolo[2,3-d]pyrimidin-7-yl}-3-azabicyclo[3.1.0]hexane-3-carboxylate]: 0.092 nM. In the case of `CC1(C(=O)N2CC(C)(N3CCc4c(-c5cnc(N)nc5)nc(N5CCOCC5)nc43)C2)CC1` [Example 246, {3-[4-(2-aminopyrimidin-5-yl)-2-(morpholin-4-yl)-5,6-dihydro-7H-pyrrolo[2,3-d]pyrimidin-7-yl]-3-methylazetidin-1-yl}(1-methylcyclopropyl) methanone] it was 0.060 nM. For the compound `C[C@]1(N2CCc3c(-c4cnc(N)nc4)nc(N4CCOCC4)nc32)CCN(C2CCCNC2=O)C1` (single isomer, unassigned) [Example 428], the “PI3KA_Act Ki” value stood at 0.067 nM. In the case of `C[C@H]1COCCN1c1nc(-c2cnc(N)nc2)c2c(n1)N(C1(C)CN(C(=O)C3(C)CC3)C1)CC2` [Example 459, (3-{4-(2-aminopyrimidin-5-yl)-2-[(3S)-3-methylmorpholin-4-yl]-5,6-dihydro-7H-pyrrolo[2,3-d]pyrimidin-7-yl}-3-methylazetidin-1-yl)(1-methylcyclopropyl)methanone] it was 0.057 nM; in that of `C[C@H]1COCCN1c1nc(-c2cnc(N)nc2)c2c(n1)N([C@@]1(C)CCN(S(C)(=O)=O)C1)CC2` [Example 175], 0.023 nM; in that of `C[C@]1(N2CCc3c(-c4cnc(N)nc4)nc(N4CCOCC4)nc32)CCN(CC(F)F)C1` [Example 421, 5-{7-[(3S)-1-(2,2-difluoroethyl)-3-methylpyrrolidin-3-yl]-2-(morpholin-4-yl)-6,7-dihydro-5H-pyrrolo[2,3-d]pyrimidin-4-yl}pyrimidin-2-amine], 0.071 nM. `CCC(=O)N1CC[C@@](C)(N2CCc3c(-c4cnc(N)nc4)nc(N4CCOCC4)nc32)C1` [Example 261, 1-{(3R)-3-[4-(2-aminopyrimidin-5-yl)-2-(morpholin-4-yl)-5,6-dihydro-7H-pyrrolo[2,3-d]pyrimidin-7-yl]-3-methylpyrrolidin-1-yl}propan-1-one]: the “PI3KA_Act Ki” value was determined as 0.143 nM.

On to `CNC(=O)COC(=O)N1CC(N2CCc3c(-c4cnc(N)nc4)nc(N4CCOCC4)nc32)C1` [Example 142], for which the “PI3KA_Act Ki” value was determined as 0.159 nM.
